Here are results for two molecules from PMC5853558, “De novo identification of lipid II binding lipopeptides with antibacterial activity against vancomycin-resistant bacteria” (Chemical Science, 2017).

Structures are written as SMILES. ≈ marks a conversion by molar mass, not a printed value. *1 amine or outer side, *2 acyl side, *3 side chain or, on linkers, in order; H or OH if unused. Where a SMILES comes first, the peptide text is derived from it. Bridges are numbered along the chain shown (N, C = ends). [ ]: non-standard residue; d: D form. The star is where a group is joined. TBMB = c1c(C[*:1])cc(C[*:3])cc1C[*:2]; NHDecyl = CCCCCCCCCCN*

One assay has as its system S. pyogenes (5448). In words: microbe, parasite or virus in culture. The format is cell-based. A digest of the protocol: (§1)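 Broth microdilution in TSB; peptides serially diluted, top final concentration 512 µg/ml (lipopeptides 64 µg/ml) with 2% DMSO. Inoculum from cultures grown to OD600 0.5, diluted to 1 x 10^6 CFU/ml before mixing 1:1 with peptide. Incubated at each organism's preferred growth temperature, 250 rpm.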

For the next assay, the system named is S. epidermidis (1587). In words: microbe, parasite or virus in culture. The format is cell-based. A digest of the protocol:
as §1

In a further assay the test system is B. subtilis (168). In words: microbe, parasite or virus in culture. The format is cell-based. In short, it runs like this: as §1
The test system of another assay is lipid II. Put plainly: Lipid II antagonization assay. The format is cell-based, M. luteus. Details: key to Result with antagonist Lipid II: +: antagonization of antibiotic activity; -: no antagonization of antibiotic activity. The note with it: for Result with antagonist Lipid II: Supplemental table S10, peptide at 4x MIC, antagonist at 4 molar equivalents, M. luteus 1 x 10^6 CFU/ml, 16 h at 30°C, growth observed visually; for Effect of pre-incubation with lipid II on antibacterial activity: premixed with an excess of lipid II before addition of a live culture of M. luteus. As to the method: To assess the role of lipid II in the mode of action of the lipopeptides a lipid II antagonization assay was employed.[18],[33] This assay was performed by premixing P8-D-C10 or the optimized P8-D-(S6R, R15A)-C10 with an excess of lipid II prior to addition of a live culture of M. luteus. […] To probe the stereochemical aspects of lipid II recognition by the optimized P8-D-(S6R, R15A)-C10 lipopeptide we also prepared and tested the corresponding enantiomeric L-peptide species P8-L-(S6R, R15A)-C10. […] Given that lipid II is a chiral biomolecule we had expected the enantiomeric lipopeptides to have different activities based on the assumption that they would interact differently with lipid II. To further investigate this phenomenon we employed the same lipid II antagonization assay described above. […] To explain this observation we hypothesize that the two enantiomeric peptides interact primarily with the pyrophosphate moiety of lipid II and are therefore less influenced by the chiral elements present elsewhere in the lipid II molecule. The pyrophosphate group is known to be a binding site for many natural occurring lipid II binding peptides.[15],[16] […] To test the hypothesis that both the P8-D-(S6R, R15A)-C10 and P8-L-(S6R, R15A)-C10 lipopeptides interact with the pyrophosphate moiety we performed an additional antagonizaiton experiment using C55-PP.
Section 4 Biological and biochemical experiments
4.1 Minimum inhibitory concentration assay
MIC values were determined by using the broth microdilution method. Peptides were dissolved first in DMSO and diluted with broth so that the final peptide concentration was 1024 µg/ml and the DMSO concentration was 4%. Peptide serial dilutions were made in TSB in a polypropylene 96-wells plate using 50 µl volumes. An overnight culture of the organism of interest was diluted to and OD600 of 0.01 and grown until they reach 0.5. The culture was then diluted to 1 x 10^6 CFU/ml and 50 µl of this suspension was added to each well. The highest concentrations were then 512 µg/ml peptide and 2% DMSO. The plates were incubated at the preferred growth temperature of the organism that was used and 250 rpm. […] When […]
determining the MICs of the lipidated peptides, the lipopeptides were first dissolved in DMSO and diluted with TSB so that the peptide concentration was 128 µg/ml and the DMSO concentration was 4%. After inoculation the highest peptide concentration evaluated was 64 µg/ml and the DMSO concentration was 2%. A DMSO control was tested for each strain to ensure the DMSO did not affect the growth of the particular strain. […]
4.4 Antagonization assays
Stock solutions of each peptide antibiotic were prepared so that their final concentration in the assay would be 4x MIC. Peptides were transferred to a 96 wells plate and lipid II or C15-P (farnesyl-phosphate) was added at 4 molar equivalents in a final volume of 50 µl. Each well received 50 µl of bacterial suspension (M. luteus) at 1 x 10^6 CFU/ml and the plates were incubated for 16 h at 250 rpm and 30°C. Growth was observed visually (see supplemental table S10 for results).

Another assay deals with M. luteus (NCTC2665). Put plainly: microbe, parasite or virus in culture. The format is cell-based, Micrococcus luteus. In short, it runs like this:
as §1

Where [1] appears, read: Table 2, broth microdilution in TSB, 16 h, read visually, highest tested 64 µg/ml.
The mark [2] stands for this setting: Supplemental table S9, MIC values of Table 2 expressed in µM.
Setting [3] is: Table 2, broth microdilution in TSB, 16 h, read visually, highest tested 64 µg/ml, 2% DMSO.

With `CCCCCCCCCCNC(=O)CNC(=O)[C@H]1CSCc2cc3cc(c2)CSC[C@@H](NC(=O)[C@@H](CC(C)C)NC(=O)[C@@H](CC(C)C)NC(=O)[C@@H](CCCNC(=N)N)NC(=O)[C@@H](CCC(N)=O)NC(=O)[C@@H](CC(C)C)NC(=O)[C@@H](CC(C)C)NC(=O)[C@H](NC(=O)[C@@H](C)N)CSC3)C(=O)N2CCC[C@@H]2C(=O)N[C@H](Cc2ccc(O)cc2)C(=O)N[C@H](CO)C(=O)N[C@H]([C@H](C)O)C(=O)N[C@H](Cc2c[nH]cn2)C(=O)N[C@H](C)C(=O)N1` [P8-D-(S6R, R15A)-C10] (H-[dA][dC][dL][dL][dQ][dR][dL][dL][dC][dP][dY][dS][dT][dH][dA][dC]G-NHDecyl; linker 2-9-16 via TBMB; N-terminus assumed), the “MIC S. pyogenes (5448)” value with S. pyogenes (5448) (setting [1]) is listed as 8–16 μg mL^–1. In addition, the “MIC S. epidermidis (1587)” value with S. epidermidis (1587) (setting [2]) is listed as 60.9 µM (≈ 128 µg/mL); against S. epidermidis (1587) (setting [1]), 64 μg mL^–1. For the same molecule, the “MIC B. subtilis (168)” value against B. subtilis (168) (setting [2]) turned out to be 7.6 µM (≈ 16 µg/mL); in the assay on B. subtilis (168) (setting [1]) it was 8 μg mL^–1. Moreover, in the assay with lipid II, the “Result with antagonist Lipid II” value is reported as “+”. Moreover, the “Effect of pre-incubation with lipid II on antibacterial activity” value in the assay with lipid II was “antagonization of antibacterial activity”. The “MIC M. luteus (NCTC2665)” value with M. luteus (NCTC2665) (setting [2]) was 3.8 µM (≈ 7.99 µg/mL); against M. luteus (NCTC2665) (setting [3]), 4 μg mL^–1.
With `CCCCCCCCCCNC(=O)CNC(=O)[C@@H]1CSCc2cc3cc(c2)CSC[C@H](NC(=O)[C@H](CC(C)C)NC(=O)[C@H](CC(C)C)NC(=O)[C@H](CCCNC(=N)N)NC(=O)[C@H](CCC(N)=O)NC(=O)[C@H](CC(C)C)NC(=O)[C@H](CC(C)C)NC(=O)[C@@H](NC(=O)[C@H](C)N)CSC3)C(=O)N2CCC[C@H]2C(=O)N[C@@H](Cc2ccc(O)cc2)C(=O)N[C@@H](CO)C(=O)N[C@@H]([C@@H](C)O)C(=O)N[C@@H](Cc2c[nH]cn2)C(=O)N[C@@H](C)C(=O)N1` [P8-L-(S6R, R15A)-C10] (H-ACLLQRLLCPYSTHACG-NHDecyl; linker 2-9-16 via TBMB; N-terminus assumed), the results for the “MIC S. pyogenes (5448)” value with S. pyogenes (5448) (setting [2]) and in the assay with S. pyogenes (5448) (setting [1]) were 7.6 µM (≈ 16 µg/mL) and 8 μg mL^–1, respectively. The “MIC S. epidermidis (1587)” value in the assay on S. epidermidis (1587) (setting [2]) was determined as 30.5 µM (≈ 64.1 µg/mL); with S. epidermidis (1587) (setting [1]), 32 μg mL^–1. In addition, the “MIC B. subtilis (168)” value against B. subtilis (168) (setting [2]) is 7.6 µM (≈ 16 µg/mL); with B. subtilis (168) (setting [1]), 8 μg mL^–1. Besides, the “Result with antagonist Lipid II” value in the assay on lipid II was “+”. In addition, in the assay on lipid II, the “Effect of pre-incubation with lipid II on antibacterial activity” value is reported as “effectively antagonized”. The “MIC M. luteus (NCTC2665)” value in the assay with M. luteus (NCTC2665) (setting [2]) was 3.8 µM (≈ 7.99 µg/mL); in the assay with M. luteus (NCTC2665) (setting [3]), 4 μg mL^–1.
